Laboratory results from patent US20240175019A1, “Skeletal Muscle Delivery Platforms and Methods of Use” (Arrowhead Pharmaceuticals, Inc., priority 2020, published 2024).
Oligonucleotides are written 5' to 3', each unit as a sugar letter and its base; * is a phosphorothioate linkage, no mark a phosphodiester; rarer units and linkages stand in square brackets, end groups in braces. Plain capitals give the bases only. {NH2-C6} = C6 amine reactive group for conjugation; {Alk-cyHex} = alkyne-cyclohexyl conjugation group; [invAb] = inverted abasic deoxyribose residue; [C6-SS-C6] = C6-disulfide-C6 linker; d = 2'-deoxy (DNA); m = 2'-O-methyl; f = 2'-fluoro

Each substance was assayed on myostatin mRNA (assay: MSTN expression in triceps of mice by qPCR TaqMan assay (Example 7)). Conditions: Day 22, mice, 3 mg/kg single injection on Day 1, n=4.
Assay type: in vivo
Protocol: On Study Day 1, mice were injected with either isotonic saline (vehicle control) or 3 mg/kg (mpk) of RNAi agent formulated in isotonic saline according to the following dosing Groups:
The RNAi agents in Example 7 were synthesized having nucleotide sequences directed to target the MSTN gene, and groups 1 and 3 included a functionalized amine reactive group (NH2-C6) at the 5′ terminal end of the sense strand to facilitate conjugation to L4 which could then be conjugated to the small molecule targeting ligand Compound 45b. Group 2 included an (Alk-cyHex)s (see Table 28 for structure details) which was conjugated to the small molecule targeting ligand Compound 45b. The myostatin RNAi agents further included a PEG48+C22 PK/PD modulator, which was linked to the 3′ end of the sense strand.
Four (4) mice were dosed in each Group (n=4). Mice were sacrificed on study day 22, and total myostatin mRNA was isolated from the triceps. Triceps were harvested from right front limb. Each sample was snap-frozen in percellys tubes and stored in a −80° C. freezer until assays were completed. Relative MSTN expression was determined by qPCR TaqMan Assay on muscle tissue.

Substance	Average relative MSTN expression, Relative Expression
AD06326: AS: usGfsusUfaCfagcaaGfaUfcAfuGfgCfsc; SS: (NH2-C6)s(invAb)sggccaugaUfCfUfugcuguaacas(invAb)(C6-SS-C6)dT (antisense mU*fG*mU*fUmAfCmAmGmCmAmAfGmAfUmCfAmUfGmGfC*mC; sense {NH2-C6}*[invAb]*mGmGmCmCmAmUmGmAfUfCfUmUmGmCmUmGmUmAmAmCmA*[invAb][C6-SS-C6]dT; siRNA; Compound 45b ligand via L4 on sense 5' amine, PEG48+C22 at sense 3')	0.296
AD06916: AS: usGfsusUfaCfagcaaGfaUfcAfuGfgCfsc; SS: (NH2-C6)s(invAb)sggccaugaUfCfUfugcuguaacas(invAb)s(C6-SS-C6)dT (antisense mU*fG*mU*fUmAfCmAmGmCmAmAfGmAfUmCfAmUfGmGfC*mC; sense {NH2-C6}*[invAb]*mGmGmCmCmAmUmGmAfUfCfUmUmGmCmUmGmUmAmAmCmA*[invAb]*[C6-SS-C6]dT; siRNA; Compound 45b ligand via L4 on sense 5' amine, PEG48+C22 at sense 3')	0.295
AD06912: AS: usGfsusUfaCfagcaaGfaUfcAfuGfgCfsc; SS: (Alk-cyHex)s(invAb)sggccaugaUfCfUfugcuguaacas(invAb)(C6-SS-C6)dT (antisense mU*fG*mU*fUmAfCmAmGmCmAmAfGmAfUmCfAmUfGmGfC*mC; sense {Alk-cyHex}*[invAb]*mGmGmCmCmAmUmGmAfUfCfUmUmGmCmUmGmUmAmAmCmA*[invAb][C6-SS-C6]dT; siRNA; Compound 45b ligand on sense 5' Alk-cyHex, PEG48+C22 at sense 3')	0.253
